According to ChEMBL document CHEMBL1201862, “PubChem BioAssay data set” (2004):
The source made the active and inactive calls.

Tests used:
[1] = target: T1, Coagulation factor XII (Homo sapiens, UniProt P00748); assay: activated coagulation factor XII inhibitor potency, concentration-effect curve, cell-free (AID 716); type: functional
T1 sequence (P00748 whole entry): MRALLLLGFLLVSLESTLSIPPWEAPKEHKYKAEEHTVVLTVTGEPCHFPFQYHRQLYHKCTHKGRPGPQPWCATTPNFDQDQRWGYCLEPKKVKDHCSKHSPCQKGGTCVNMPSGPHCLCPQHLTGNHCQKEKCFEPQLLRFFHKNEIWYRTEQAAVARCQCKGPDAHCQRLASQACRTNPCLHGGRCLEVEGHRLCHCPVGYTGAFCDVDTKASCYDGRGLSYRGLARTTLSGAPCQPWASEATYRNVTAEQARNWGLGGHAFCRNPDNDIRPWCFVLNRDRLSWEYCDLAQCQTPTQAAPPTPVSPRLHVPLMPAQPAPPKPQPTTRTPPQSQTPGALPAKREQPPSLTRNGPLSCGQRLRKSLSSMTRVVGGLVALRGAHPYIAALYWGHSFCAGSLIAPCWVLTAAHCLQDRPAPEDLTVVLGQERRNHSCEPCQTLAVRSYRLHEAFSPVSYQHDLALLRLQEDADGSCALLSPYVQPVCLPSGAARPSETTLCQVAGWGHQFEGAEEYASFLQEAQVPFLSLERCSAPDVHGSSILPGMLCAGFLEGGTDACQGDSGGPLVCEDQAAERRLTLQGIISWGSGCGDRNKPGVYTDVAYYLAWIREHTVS

[2] = system: HEK293; assay: inhibition of NOD1-driven NF-kB reporter – cell-based, luminescence, uHTS, primary screen (AID 1578); type: functional; details: Homo sapiens
[3] = target: Nucleotide-binding oligomerization domain-containing protein 2 (Homo sapiens, UniProt Q9HC29); assay: inhibition of NOD2-driven NF-kB reporter – cell-based, luminescence, uHTS, HEK293 (AID 1566); type: functional
[4] = target: Major prion protein (Homo sapiens, UniProt P04156); type: functional, cell-based
[5] = system: HEK293; assay: NOD2 signaling inhibitors in MDP-stimulated cells, cell-based, uHTS, luminescence (AID 2001); type: functional; details: Homo sapiens
[6] = system: HEK293; assay: cells; type: functional, cell-based; details: Homo sapiens
[7] = cells
[8] = system: HEK293; assay: cells; type: functional, cell-based; details: Homo sapiens; remark: listed apart in the source
[9] = system: HEK293; assay: cells; type: functional, cell-based; details: Homo sapiens; remark: listed apart in the source
[10] = target: T2, Cannabinoid receptor 1 (Homo sapiens, UniProt P21554); assay: SAR analysis of agonists of the Cannabinoid Receptor 1 using an Image-Based Assay - Set 3. [Related pubchem assays (depositor defined):AID1961, AID1965]; type: functional
[11] = target: T2, Cannabinoid receptor 1; assay: SAR analysis of antagonists of the Cannabinoid Receptor 1 using an Image-Based Assay - Set 3. [Related pubchem assays (depositor defined):AID1961, AID1965]; type: functional
[12] = target: T3, G-protein coupled receptor 35 (Homo sapiens, UniProt Q9HC97); assay: SAR analysis of Agonists of the GPR35 Receptor using an Image-Based Assay - Set 3. [Related pubchem assays (depositor defined):AID1961, AID1965]; type: functional
[13] = target: T4, Cannabinoid receptor 2 (Homo sapiens, UniProt P34972); assay: SAR analysis of agonists of the Cannabinoid Receptor 2 using an Image-Based Assay - Set 2. [Related pubchem assays (depositor defined):AID1961, AID1965]; type: functional
[14] = target: G-protein coupled receptor 55 (Homo sapiens, UniProt Q9Y2T6); assay: SAR analysis of selective Agonists of GPR55 using an Image-Based Assay - Set 2. [Related pubchem assays (depositor defined):AID1961, AID1965]; type: functional
[15] = target: T4, Cannabinoid receptor 2; assay: SAR analysis of antagonists of the Cannabinoid Receptor 2 using an Image-Based Assay - Set 2. [Related pubchem assays (depositor defined):AID1961, AID1965]; type: functional
[16] = target: T3, G-protein coupled receptor 35; assay: SAR analysis of Antagonists of the GPR35 Receptor using an Image-Based Assay - Set 4. [Related pubchem assays (depositor defined):[…]]; type: functional
[17] = target: T5, Sentrin-specific protease 8 (Homo sapiens, UniProt Q96LD8); type: functional;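 further: luminescence read-out of SENP8 inhibition, dose-response confirmation following an ultra-high-throughput screen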
T5 sequence (Q96LD8 whole entry): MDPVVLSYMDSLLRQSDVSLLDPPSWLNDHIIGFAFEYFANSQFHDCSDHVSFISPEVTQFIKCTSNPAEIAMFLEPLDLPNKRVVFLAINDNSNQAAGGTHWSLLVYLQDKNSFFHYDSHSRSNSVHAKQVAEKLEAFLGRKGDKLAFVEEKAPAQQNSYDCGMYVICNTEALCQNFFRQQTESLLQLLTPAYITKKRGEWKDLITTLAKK

[18] = target: Photoreceptor-specific nuclear receptor (Homo sapiens, UniProt Q9Y5X4); type: functional, cell-based;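 further: CHO-S cells with Gal4-NCOR and VP16-NR2E3 two-hybrid luciferase reporter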
[19] = viability of PTEN-deleted HCT116 cells – cell-based, HCT116 PTEN knockout, dose response (AID 1047); type: functional;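 further: HCT116 colon tumor cells with PTEN knocked out; cells exposed to compound for 60 hours before readout; potency for loss of cell viability measured by luminescence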
[20] = target: T6, Sentrin-specific protease 7 (Homo sapiens, UniProt Q9BQF6); type: functional;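 further: Luminescence-based dose-response confirmation of ultra-high-throughput screening hits, measuring inhibition of SENP7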
T6 sequence (Q9BQF6 whole entry): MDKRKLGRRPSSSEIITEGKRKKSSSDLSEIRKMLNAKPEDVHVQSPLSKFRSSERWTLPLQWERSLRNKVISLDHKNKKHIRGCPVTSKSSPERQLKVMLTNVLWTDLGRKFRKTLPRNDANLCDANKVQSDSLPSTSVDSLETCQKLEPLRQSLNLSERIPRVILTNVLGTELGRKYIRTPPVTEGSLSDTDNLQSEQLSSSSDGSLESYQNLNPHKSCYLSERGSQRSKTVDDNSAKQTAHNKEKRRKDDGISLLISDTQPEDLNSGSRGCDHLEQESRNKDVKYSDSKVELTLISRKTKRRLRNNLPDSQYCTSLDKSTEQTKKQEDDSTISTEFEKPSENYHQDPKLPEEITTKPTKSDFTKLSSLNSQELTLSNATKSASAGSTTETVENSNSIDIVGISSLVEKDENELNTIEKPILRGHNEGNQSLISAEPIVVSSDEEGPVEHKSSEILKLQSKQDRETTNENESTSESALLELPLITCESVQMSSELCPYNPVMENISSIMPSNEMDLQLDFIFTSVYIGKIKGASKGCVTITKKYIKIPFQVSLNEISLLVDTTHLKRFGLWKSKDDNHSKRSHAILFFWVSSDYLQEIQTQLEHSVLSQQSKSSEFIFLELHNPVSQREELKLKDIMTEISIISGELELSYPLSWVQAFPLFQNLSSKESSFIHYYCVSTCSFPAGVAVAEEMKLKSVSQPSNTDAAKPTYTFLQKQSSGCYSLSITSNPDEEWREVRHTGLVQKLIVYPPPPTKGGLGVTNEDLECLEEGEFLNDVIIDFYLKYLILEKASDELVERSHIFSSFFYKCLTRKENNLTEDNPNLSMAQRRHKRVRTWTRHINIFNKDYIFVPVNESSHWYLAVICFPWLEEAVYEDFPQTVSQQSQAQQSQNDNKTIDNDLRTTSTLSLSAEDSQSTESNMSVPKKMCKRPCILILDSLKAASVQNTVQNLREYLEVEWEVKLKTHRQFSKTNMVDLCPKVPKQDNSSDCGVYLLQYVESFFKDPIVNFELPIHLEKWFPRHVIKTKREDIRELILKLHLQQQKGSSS

[21] = THP-1 cell cytotoxicity, dose response, cytotoxicity control for non-replicating M. tuberculosis project (AID 489025); type: functional
[22] = Vero E6 cell cytotoxicity, dose response, cytotoxicity control for non-replicating M. tuberculosis project, secondary assay (AID 492998); type: functional, VeroE6; details: Vero C1008
[23] = viability of HCT116 lacking mutant beta-catenin – cell-based, human colon tumor, dose response (AID 1045); type: functional;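 further: HCT116 colon tumor cells with beta catenin knocked out; cells exposed to compound for 60 hours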
[24] = system: INS1; assay: INS-1E survival protection against cytokine death – cell-based, luminescence, retest, dose response (AID 449756); type: functional; details: Rattus norvegicus;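 further: cell death triggered by IL-1 beta plus TNF-alpha plus IFN-gamma mixture; protective hits raise ATP signal compared with cytokine alone wells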
[25] = target: T7, Caspase-3 (Homo sapiens, UniProt P42574); type: functional;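 further: Dose-response selectivity test against caspase-3 for candidate inhibitors of sentrin-specific proteases (SENPs)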
T7 sequence (P42574 whole entry): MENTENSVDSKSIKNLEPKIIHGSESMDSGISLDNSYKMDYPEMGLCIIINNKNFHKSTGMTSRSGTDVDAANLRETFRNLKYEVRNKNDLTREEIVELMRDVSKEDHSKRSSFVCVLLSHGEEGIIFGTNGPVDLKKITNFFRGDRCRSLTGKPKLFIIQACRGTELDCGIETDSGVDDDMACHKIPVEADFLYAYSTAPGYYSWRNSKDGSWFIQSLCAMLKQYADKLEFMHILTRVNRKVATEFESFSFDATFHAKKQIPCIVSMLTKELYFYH

[26] = HepG2 cell cytotoxicity, dose response, cytotoxicity control for non-replicating M. tuberculosis project (AID 489018); type: functional; details: Mycobacterium tuberculosis
[27] = target: T8, Sentrin-specific protease 6 (Homo sapiens, UniProt Q9GZR1); type: functional;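 further: Luminescence-based dose-response confirmatory assay of SENP6 inhibition, following up an ultra-high-throughput screen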
T8 sequence (Q9GZR1 whole entry): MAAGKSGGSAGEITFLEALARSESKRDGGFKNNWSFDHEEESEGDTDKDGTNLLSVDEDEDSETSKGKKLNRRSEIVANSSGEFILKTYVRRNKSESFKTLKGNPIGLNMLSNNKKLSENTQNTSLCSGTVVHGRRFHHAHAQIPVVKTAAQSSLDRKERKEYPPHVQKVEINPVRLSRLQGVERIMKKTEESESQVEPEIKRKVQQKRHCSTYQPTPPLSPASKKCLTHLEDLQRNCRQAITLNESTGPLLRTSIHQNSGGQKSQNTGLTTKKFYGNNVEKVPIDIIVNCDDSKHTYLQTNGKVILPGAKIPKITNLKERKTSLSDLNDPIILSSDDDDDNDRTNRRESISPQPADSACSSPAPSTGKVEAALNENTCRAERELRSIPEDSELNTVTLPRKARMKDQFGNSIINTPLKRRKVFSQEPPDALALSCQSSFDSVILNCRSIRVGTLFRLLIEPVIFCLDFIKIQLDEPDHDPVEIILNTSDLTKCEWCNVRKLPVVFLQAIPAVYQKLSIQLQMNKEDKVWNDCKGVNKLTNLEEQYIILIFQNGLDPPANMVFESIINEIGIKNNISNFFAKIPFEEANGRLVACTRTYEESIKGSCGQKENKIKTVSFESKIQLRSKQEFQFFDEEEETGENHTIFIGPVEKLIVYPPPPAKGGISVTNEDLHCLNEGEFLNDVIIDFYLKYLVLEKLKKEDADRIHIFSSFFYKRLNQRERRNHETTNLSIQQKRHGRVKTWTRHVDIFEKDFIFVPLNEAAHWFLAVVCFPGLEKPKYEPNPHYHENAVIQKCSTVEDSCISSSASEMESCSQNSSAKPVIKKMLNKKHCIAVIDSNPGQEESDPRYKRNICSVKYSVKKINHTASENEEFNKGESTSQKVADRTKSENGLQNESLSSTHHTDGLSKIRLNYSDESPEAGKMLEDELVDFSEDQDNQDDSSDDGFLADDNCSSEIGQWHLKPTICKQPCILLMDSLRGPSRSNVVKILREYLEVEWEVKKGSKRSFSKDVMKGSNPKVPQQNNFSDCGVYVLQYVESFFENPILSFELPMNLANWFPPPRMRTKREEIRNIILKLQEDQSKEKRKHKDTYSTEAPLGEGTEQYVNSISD

CC(C)CCn1c(=S)[nH]c2ncccc2c1=O
inactive: IC50 [1] > 50 µM

Cc1nc2c(Br)cc(Br)cc2cc1O
active: EC50 [2] 11.4 µM | EC50 [3] 13.2 µM | IC50 [4] 1.36 µM | IC50 [5] 6.68 µM | IC50 [9] 6.3 µM
inactive: IC50 [6] > 20 µM | IC50 [7] > 138 µM | IC50 [8] > 20 µM

COc1ccc(S(=O)(=O)N2CCOCC2)cc1NC(=O)c1ccc2c(c1)OCO2
inactive: EC50 [10] > 32 µM | IC50 [11] > 32 µM | EC50 [12] > 32 µM | EC50 [13] > 32 µM | EC50 [14] 18 µM | IC50 [15] > 32 µM | IC50 [16] > 32 µM

COc1ccccc1-n1c(=O)oc2ccc(Cl)cc2c1=O
active: IC50 [17] 22.6 µM | IC50 [18] 5.1 µM | EC50 [19] 11.7 µM | IC50 [20] 11.5 µM | CC50 [21] 19.8 µM | CC50 [22] > 20 µM | EC50 [23] 11.9 µM | AC50 [24] 8.62 µM | IC50 [25] 26.9 µM | CC50 [26] > 20 µM | IC50 [27] 16.5 µM
